According to article PMC10819888, “Benzimidazole-Based Derivatives as Apoptotic Antiproliferative Agents: Design, Synthesis, Docking, and Mechanistic Studies” (Molecules, 2024):

Tests used:
Assay type in all cases: cell-based, human
caspase-3 = assay: Caspase-3 activation assay; conditions: PC-3 cell line
Description: Caspase-3 is a key caspase that cleaves numerous cell proteins, resulting in apoptosis. […] They elevated the protein caspase-3 in the PC-3 cancer cell line by around seven to nine times compared to untreated control cells.
(§1) For more details, see Supplementary Materials. […]
4.2.3. Caspase-3 activation assay
Allow all reagents to reach room temperature before use. Gently mix all liquid reagents prior to use. Determine the number of 8-well strips needed for the assay. Insert these in the frame(s) for current use. Add 100 μl of the Standard Diluent Buffer to the zero standard wells. Well(s) reserved for chromogen blank should be left empty. Add 100 μl of standards and controls or diluted samples to the appropriate microtiter wells. The sample dilution chosen should be optimized for each experimental system. Tap gently on side of plate to mix. Cover wells with plate cover and incubate for 2 hours at room temperature. Thoroughly aspirate or decant solution from wells and discard the liquid, Wash wells 4 times. Pipette 100 μl of Caspase-3 (Active) Detection Antibod y solution into each well except the chromogen blank(s). Tap gently on the side of the plate to mix.
Cover plate with plate cover and incubate for 1 hour at room temperature. Thoroughly aspirate or decant solution from wells and discard the liquid, Wash well s 4 times. Add 100 μl Anti-Rabbit IgG HRP Working Solution to each well except the chromogen blank(s). Prepare the working dilution as described in Preparing IgG HRP. Cover wells with the plate cover and incubate for 30 minutes at room temperature. Thoroughly aspirate or decant solution from wells and discard the liquid. Wash wells 4 times. Add 100 μl of Stabilized Chromogen to each well. The liquid in the wells will begin to turn blue. Incubate for 30 minutes at room temperature and in the dark. The incuba tion time for chromogen substrate is often determined by the microtiter plate reader used. Many plate readers have the capacity to record a maximum optical density (O.D.) of 2.0. The O.D. values should be monitored, and the substrate reaction stopped befor e the O.D. of […]
(§2) the positive wells exceeds the limits of the instrument. The O.D. values at 450 nm can only be read after the Stop Solution has been added to each well. If using a reader that […]
100 μl of Stop Solution to each well. Tap side of plate gently to mix. The solution in the wells should change from blue to yellow. Read the absorbance of each well at 450 nm having blanked the plate reader against a chromogen blank composed of 100 μl each of Stabilized Chromogen and Stop Solution. Read the plate within 2 hours after adding the Stop Solution. Use a curve fitting software to generate the standard curve. A four-parameter algorithm provides the best standard curve fit. Read the concentrations for unknown samples and controls from the standard curve. Multiply value(s) obtained for sample(s) by the appropriate dilution factor to correct for the dilution in step 3. Samples producing signals greater than that of the highest standard should be diluted in Standard Diluent Buffer and reanalyzed. […]
A standard curve is […]
prepared from 7human Caspase-8 standard dilutions and human Caspase-8 concentration determined.

Bcl-2 = Bcl-2 inhibition assay; conditions: PC-3 cell line; for down-regulation of anti-apoptotic Bcl-2 protein levels: compared to staurosporine
Experimental: as §1
4.2.6. Bcl-2 inhibition assay
Mix all reagents thoroughly without foaming before use. Wash the microwells twice with approximately 300 μL Wash Buffer per well with thorough aspiration of microwell contents between washes. Take caution not to scratch the surface of the microwells.
After the last wash, empty the wells and tap microwell strips on absorbent pad or paper towel to remove excess Wash Buffer. Use the microwell strips immediately after washing or place upside down on a wet absorbent paper for not longer than 15 minutes.
Add 100 μL of Sample Diluent in duplicate to all standard wells and to the blank wells. Prepare standard (1:2 dilution) in duplicate ranging from 32 ng/mL to 0.5 ng/mL. Add 100 μL of Sample Diluent, in duplicate, to the blank wells.
Add 80 μL of Sample Diluent, in duplicate, to the sample wells. Add 20 μL of each Sample, in duplicate, to the designated wells. Add 50 μL of diluted biotin-conjugate to all wells, including the blank wells. Cover with a plate cover and incubate at room temperature, on a microplate shaker at 100 rpm if available, for 2 hours. Remove plate cover and empty the wells. Wash microwell strips 3 times as described in step 2. Add 100 μL of diluted Streptavidin-HRP to all wells, including the blank wells. Cover with a plate cover and incubate at room temperature, on a microplate shaker at 100 rpm if available, for 1 hour. Remove plate cover and empty the wells. Wash microwell strips […]
3 times as described in step 2. Proceed to the next step. Pipette 100 μl of mixed TMB Substrate Solution to all wells, including the blanks. Incubate the microwell strips at room temperature (18° to 25°C) for about 15 minutes, if available on a rotator set at 100 rpm. Avoid direct exposure to intense light. The point, at which the substrate reaction is stopped, is often determined by the ELISA reader. Many ELISA readers record absorbance only up to 2.0 O.D. Therefore, the color development within individual microwells must be watched by the person running the assay and the substrate reaction stopped before positive wells are no longer properly detectable. Stop the enzyme reaction by quickly pipetting 100 μL of Stop Solution into each well, including the blank wells. It is important that the Stop Solution is spread quickly and uniformly throughout the microwells to completely inactivate the enzyme. Results must be read immediately after the Stop Solution is added or within one hour if the microwell strips are stored at 2 - 8°C in the dark. Read absorbance of each microwell on a spectrophotometer using 450 nm as the primary wavelength.
4.3. Statistical analysis
Computerized Prism 5 program was used to statistically analyzed data using one-way ANOVA test followed by Tukey’s as post ANOVA for multiple comparison at P ≤.05.
Data were presented as mean ± SEM.

caspase-8 = assay: Caspase-8 activation assay; conditions: PC-3 cell line
Experimental: as §1, §2
100 μl of Stop Solution to each well. Tap side of plate gently to mix. The solution in the wells should change from blue to yellow. Read the absorbance of each well at 450 nm having blanked the plate reader against a chromogen blank composed of 100 μl each of Stabilized Chromogen and Stop Solution. Read the plate within 2 hours after adding the Stop Solution. Use a curve fitting software to generate the standard curve. A four- […]
Read the concentrations for unknown samples and controls from the standard curve. Multiply value(s) obtained for sample(s) by the appropriate dilution factor to correct for the dilution in step 3. Samples […]
Diluent Buffer and reanalyzed.
4.2.4. Caspase-8 activation assay
Cells were obtained from American Type Culture Collection, cells were grown in RPMI […]
tested for caspase8, and lysed with Cell Extraction Buffer. This lysate was diluted in […]
caspase-8 content. (Cells are Plated in a density of 1.2 – 1.8 × 10,000 cells/well in a volume of 100µl complete growth medium + 100 ul of the tested compound per well in a 96-well plate for 24 hours before the enzyme assay for Tubulin.). The absorbance of each microwell was read on a spectro-photometer at 450 nm. A standard curve is prepared from 7human Caspase-8 standard dilutions and human Caspase-8 concentration determined.

| Structure (SMILES) | Caspase-3 Conc (caspase-3) [pg/mL] | caspase-3 protein level (caspase-3) [pg/mL] | Caspase-3 Fold Change (caspase-3; vs control) | Bcl-2 Conc (Bcl-2) [ng/mL] | down-regulation of anti-apoptotic Bcl-2 protein levels (Bcl-2) | Bcl-2 Fold Reduction (Bcl-2; vs control) | Caspase-8 Conc (caspase-8) [ng/mL] | caspase-8 increase compared to untreated control cell (caspase-8) [times] | caspase-8 level (caspase-8) [ng/mL] | Caspase-8 Fold Change (caspase-8; vs control) |
| --- | --- | --- | --- | --- | --- | --- | --- | --- | --- | --- |
| O=C(NN=Cc1ccc(Cl)cc1)c1ccc2[nH]c(-c3ccc(Cl)cc3)nc2c1 [Compound 4e, N′-(4-Chlorobenzylidene)-2-(4-chlorophenyl)-1H-benzimidazole-5-carbohydrazide] | 470 ± 15 | 470 ± 15 | 9 | 0.75 | equipotent down-regulation | 4 | 2.20 | 18 | 2.20 | 18 |
| O=C(NN=Cc1ccc([N+](=O)[O-])cc1)c1ccc2[nH]c(-c3ccc(Cl)cc3)nc2c1 [Compound 4c, N′-(4-Nitrobenzylidene)-2-(4-chlorophenyl)-1H-benzimidazole-5-carbohydrazide] | 365 ± 12 | 365 ± 12 | – | 0.80 | equipotent down-regulation | – | 1.90 | 16 | 1.90 | – |
